From US20160108381A1, “DNA POLYMERASES AND MUTANTS THEREOF” (LIFE TECHNOLOGIES CORPORATION, priority 2001, published 2016) come the findings set out here.

The experiment addresses T1, Caldibacillus cellulovorans CompA.2 (CA2) DNA polymerase, SEQ ID NO:16 ([Caldibacillus] cellulovorans, UniProt Q6X9S0).
T1 sequence (Q6X9S0 with tags, fused parts or gaps): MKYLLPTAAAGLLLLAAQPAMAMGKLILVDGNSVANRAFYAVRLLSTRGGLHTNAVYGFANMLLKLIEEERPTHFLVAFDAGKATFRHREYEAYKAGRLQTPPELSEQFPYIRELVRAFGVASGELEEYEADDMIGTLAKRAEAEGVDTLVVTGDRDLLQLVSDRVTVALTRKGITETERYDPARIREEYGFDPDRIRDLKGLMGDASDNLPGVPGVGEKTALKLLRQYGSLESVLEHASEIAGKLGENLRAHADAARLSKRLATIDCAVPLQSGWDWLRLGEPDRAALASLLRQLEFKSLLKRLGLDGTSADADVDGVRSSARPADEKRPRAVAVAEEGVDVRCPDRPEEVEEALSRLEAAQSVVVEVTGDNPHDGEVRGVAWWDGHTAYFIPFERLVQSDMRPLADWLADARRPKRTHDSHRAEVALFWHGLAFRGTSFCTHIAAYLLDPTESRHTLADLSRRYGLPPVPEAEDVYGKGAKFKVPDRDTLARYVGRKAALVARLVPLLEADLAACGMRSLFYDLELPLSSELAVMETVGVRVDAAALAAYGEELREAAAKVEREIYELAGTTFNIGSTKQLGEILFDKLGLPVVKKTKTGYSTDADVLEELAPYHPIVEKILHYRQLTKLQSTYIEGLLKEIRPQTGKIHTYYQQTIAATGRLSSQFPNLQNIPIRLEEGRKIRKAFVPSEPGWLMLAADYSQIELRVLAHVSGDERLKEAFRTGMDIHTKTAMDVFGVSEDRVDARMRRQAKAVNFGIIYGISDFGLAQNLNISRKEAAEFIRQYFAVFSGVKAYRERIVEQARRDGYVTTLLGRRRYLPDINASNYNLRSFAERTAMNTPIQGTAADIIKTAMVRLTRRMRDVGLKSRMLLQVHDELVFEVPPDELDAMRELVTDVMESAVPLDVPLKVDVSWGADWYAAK
Description: Steady-state kinetics, DNA- and RNA-dependent polymerase activity. It is filed as biochemical. As for the experimental part:
Purification of CA2, B.EA1, Rt41A, Dth, Tok13B, Tok7B, and Rt69B DNA polymerase. E. coli cells (BL21SI, Invitrogen Corporation, Carlsbad, Calif.) bearing the plasmid pET26B with the gene for CA2, B.EA1, Rt41A, or Dth DNA polymerase were grown in 2.8-1 Fembach flasks in LB broth containing no salt and 50 μg/ml kanamycin at 37° C. After the culture reached an A590 of 1.2, expression of DNA polymerase was induced with 0.3 M NaCl for 3 hr. Cells were harvested by centrifugation and stored at −70° C. E. coli cells (BL21AI) bearing the plasmid pET14B with the gene for Tok13B, Tok7B, or RT69B DNA polymerase were grown in 2.8-1 Fembach flasks in LB broth containing 50 μg/ml ampicillin at 37° C. After the culture reached an A590 of 1.0, expression of DNA polymerase was induced by the addition of 0.2% arabinose for 3 hr. Cells were harvested by centrifugation and stored at −70° C.
Steady-state kinetic measurements.
The catalytic rate constant kcat and the Michaelis constant KM were determined for both the DNA-dependent and RNA-dependent polymerase activities for the polypeptides of the invention and these parameters were compared to those of Tne DNA polymerase enzyme and […]™ II reverse transcriptase. […]

Turning to `Cc1cn([C@H]2C[C@H](O)[C@@H](COP(=O)(O)OP(=O)(O)OP(=O)(O)O)O2)c(=O)[nH]c1=O` [dTTP], the “Kcat RNA (dTTP)” value (Table 34, RNA template, 2 mM MgCl2, 45 °C per footnote) is 5 s⁻¹. For the same compound, under “Table 40, dTTP, 55 °C”, the “kCAT Ratio (RNA/DNA)” value worked out at 0.59. Besides, the Km (read-out: Km RNA (dTTP), Table 34, RNA template, 2 mM MgCl2, 45 °C per footnote) stood at 17 µM.
